{"source": "patent US20200255884A1", "about": "“METHOD OF DETECTION OF DNA END(S) AND ITS USE” (INTODNA SP. Z O.O., priority 2017, published 2020)", "system": "HeLa 21-4 cells", "test": "DNA ends detection in fixed HeLa cells subjected to damaging agents (H2O2, Tpt), Procedure 1", "assay_type": "cell-based", "conditions": "30 min at 37 °C, H2O2 4 mM, Tpt 20 μM", "experimental": "Procedure: • 1. Pre-preparation (optional): • Incubation of live cells with 0.5-10 mM Tris (5 min-1 h at room temperature (RT)), cells should be monitored for morphological abnormalities. • 2. Fixation and permeabilization: • a. Incubation with 1%-4% formaldehyde solution, 10-15 min, 4° C. (optional) • b. Incubation with an […] detergent (e.g. Triton X-100 (0.25-3%) 10 min-1 h, RT. (optional) • c. Incubation in 70% ethanol in water, 1 h minimum but preferred 12-18 h, −20° C., sample should be stable for several months. (optional but most preferred) • 3. Pre-blocking (optional): • a. Wash (PBS 1×5 min) • b. Streptavidin solution—incubation performed on a droplet, 30 min, RT • c. Wash (PBS 3×5 min) • d. Biotin solution—incubation performed on a droplet, 30 min, RT • e. Wash (PBS 3×5 min) • 4. Increasing accessibility of DNA ends: • Incubation with 0.5-10 mM EDTA in water, 10 min-1 h, RT. • 5. Incorporation procedure: • Incorporation of unmodified and modified nucleotides (e.g. BrdU) using terminal deoxynucleotidyl transferase: • a. incubation is performed on a droplet in a humid chamber • b. samples are rinsed in wash buffers • 6. Blocking: • Incubation with 1-5% BSA solution in PBS (from 1 h to overnight in 4° C., RT). • 7. Incubation with primary antibodies—performed on a droplet in a humid chamber: • a. primary antibodies type 1 (e.g. mouse monoclonal against BrdU), preferred dilution 1:100 in 1-5% BSA, 1 h, RT • b. wash (PBS 3×5 min) • c. primary antibodies type 2 (e.g. rabbit polyclonal against BrdU), preferred dilution 1:100 in 1-5% BSA, 1 h, RT • d. wash (PBS 3×5 min) • 8. PLA procedure: • a. incubation with PLA Probes diluted in 1% BSA (37° C., 60 min, reaction on a droplet, in a humid chamber) in 40 μl of the reaction mixture per one coverslip: • 8 μl of PLA Probe MINUS stock (e.g. anti-mouse) • 8 μl of PLA Probe PLUS stock (e.g. anti-rabbit) • 24 μl of 1% BSA • b. wash samples with Wash Buffer A (2×5 min) • c. ligation—incubation (37° C., 30 min, reaction on a droplet, in a humid chamber) in 40 μl of the reaction mixture per one coverslip: • 8 μl of 5× Ligation stock (Sigma, Duolink, DUO82009), • 31 μl of ultrapure, RNAse/DNAse free, distilled water, • 1 μl of Ligase (1 U/μl) (Sigma, Duolink, DUO82027 or DUO82029) • d. wash samples with Wash Buffer A (2×2 min) • e. amplification—incubation (37° C., 100 min, reaction performed on a droplet, in a humid chamber) in 40 μl of the reaction mixture per one coverslip: • 8 μl of 5× Amplification stock (Sigma, Duolink, DUO82060 or DUO82011), • 31.5 μl of ultrapure, RNAse/DNAse free, distilled water, • 0.5 μl of Polymerase (10 U/μl) (Sigma, Duolink, DUO82028 or DUO82030) • 9. Imaging of samples in PBS using a fluorescence microscope. […]"}
{"compound": "OO", "note": "[H2O2]", "values": [{"measurement": "percentage of cells that show signs of heavy DNA damage (apoptotic cells) in the population", "setting": "untreated less than 5%", "result": "approximately 30%"}, {"measurement": "average number of detectable regions of incorporation of BrdU (free ends of DNA) per cell", "setting": "± standard error of the mean", "result": "31.57±8.61"}]}
